Reference: article PMC6681416, “Novel Derivatives of Deoxycholic Acid Bearing Linear Aliphatic Diamine and Aminoalcohol Moieties and their Cyclic Analogs at the C3 Position: Synthesis and Evaluation of Their In Vitro Antitumor Potential” (Molecules, 2019)

What was measured:
[1] = tested on: HuTu-80 cells; test: cells; type: cell-based
Source text: (§1) According to our previous data and data published by other research groups, chemical transformations of bile acids can greatly improve their antitumor potential. Thus, as the first step of evaluation of the biological activities of our novel DCA derivatives we assessed their effects on tumor cell viability. The cytotoxicity of the compounds was investigated with respect to a panel of cultured cell lines, including human duodenal HuTu-80, hepatocellular HepG2, cervical KB-3-1 and lung A549 carcinomas as well as murine macrophage RAW264.7 and non-transformed human fibroblasts hFF3 by MTT assay.
(§2) Human duodenal carcinoma HuTu-80 cells, human hepatocellular carcinoma HepG2 cells, human cervical carcinoma KB-3-1 cells, human lung carcinoma A549 cells were obtained from the Russian Cell Culture Collection (Institute of Cytology, RAS, St. Petersburg, Russia). Non-transformed human fibroblasts hFF3 were kindly provided by Dr. Olga Koval (Institute of Chemical Biology and Fundamental Medicine, SB RAS, Novosibirsk, Russia). RAW264.7 macrophages were kindly provided by Prof. Dr. Dmitry Kuprash (Engelhardt Institute of Molecular Biology, RAS, Moscow, Russia). The cells were cultured in DMEM (Sigma-Aldrich Inc., St. Louis, MO, USA) supplemented with 10% (v/v) heat-inactivated fetal bovine serum (FBS) (BioloT, St. Petersburg, Russia), 100 U/mL penicillin (ICN Biomedicals Inc., Costa Mesa, CA, USA), 100 µg/mL streptomycin and 0.25 µg/mL amphotericin; additionally, in the case of RAW264.7 cells, concentration of glucose in the medium was increased up to 4.5 mg/mL. The cells were incubated at 37 °C in 5% CO2 and 95% air (hereafter referred to as standard conditions). DCA derivatives were dissolved in DMSO to yield stock solutions of 10 mmol/L and stored at −20 °C prior to use.
(§3) Cells were seeded in triplicate in 96-well plates at a density of 5 × 10^3 (HuTu-80, HepG2, KB-3-1, hFF3), 10^4 (A549) or 5 × 10^4 (RAW264.7) cells per well. Cells were incubated under standard conditions for 24 h and then they were treated with varying doses of investigated derivatives for subsequent 24 h. Then 10 µL of MTT solution (5 mg/mL) were added to each wells and cells were incubated for an additional 2 h under standard conditions. The crystals of formazan forming within live cells were solubilized with DMSO and the absorbance was measured in a Multiscan RC plate reader (Thermo LabSystems, Helsinki, Finland) at a test and reference wavelengths of 570 nm and 620 nm, respectively. […] To perform SAR analysis, hierarchical clustering of compounds based on their IC50 values was fulfilled with Euclidean distance by using the Morpheus tool (https://software.broadinstitute.org/morpheus/), a platform designed for visualization and analysis of data in a matrix format. Heatmap, containing compounds’ SI values, were constructed by using the Excel 2010 software (Microsoft, Redmond, WA, USA). In order to reveal whether ROS participate in the induction of cell death by compound 9, HuTu-80 cells cultured in 96-well plate were pretreated by NAC at 2 mM for 1 h. Thereafter, the medium was replaced by fresh medium with compound 9 at 8 µM and the cells were incubated with subsequent 24 h under standard conditions. After this time period, the curves of cytotoxicity of compound 9 in the presence or absence of NAC were compared.

[2] = tested on: non-transformed human fibroblasts hFF3; test: MTT cytotoxicity assay, hFF3; type: cell-based; details: HFF-3, 24 h, read-out: IC50 hFF3 (fibroblast)
Source text: as §1
as §2, with “DCA derivatives were dissolved in DMSO to yield stock solutions of 10 mmol/L and stored at −20 °C prior to use.” left out
Cells were seeded in triplicate in 96-well plates at a density of 5 × 10^3 (HuTu-80, HepG2, KB-3-1, hFF3), 10^4 (A549) or 5 × 10^4 (RAW264.7) cells per well. […] The crystals of formazan forming within live cells were solubilized with DMSO and the absorbance was measured in a Multiscan RC plate reader (Thermo LabSystems, Helsinki, Finland) at a test and reference wavelengths of 570 nm and 620 nm, respectively. […]

[3] = tested on: KB-3-1 cells; test: MTT cytotoxicity assay, KB-3-1; type: cell-based, human
Source text: as §1, §2, §3

[4] = tested on: HepG2 cells; test: MTT cytotoxicity assay, HepG2; type: cell-based, human
Source text: as §1, §2, §3

[5] = tested on: RAW264.7 macrophages; test: MTT cytotoxicity assay, RAW264.7; type: cell-based, murine
Source text: as §1, §2, §3

COC(=O)CC[C@@H](C)[C@H]1CC[C@H]2[C@@H]3CC[C@@H]4CC(O)(CNCCCO)CC[C@]4(C)[C@H]3CC(=O)[C@]12C (stereo partly drawn) [Compound 9, Methyl 3-hydroxy-3-((3-hydroxypropylamino)methyl)-12-oxo-5β-cholan-24-oate]
IC50 ([1]; Homo sapiens, HuTu80, MTT, 24 h, read-out: IC50 HuTu-80 (duodenum)): 4 ± 0.5 µM | Selectivity index HuTu-80 ([1]; ratio IC50 hFF3 / IC50 HuTu-80): 8.3 | IC50 [2]: 33.3 ± 1.2 µM | IC50 ([3]; Homo sapiens, KB 3-1, MTT, 24 h, read-out: IC50 KB3-1 (cervix)): 22.8 ± 1.8 µM | Selectivity index KB-3-1 ([3]; ratio IC50 hFF3 / IC50 KB-3-1): 1.4 | IC50 ([4]; Homo sapiens, HepG2, MTT, 24 h, read-out: IC50 HepG2 (liver)): 7.3 ± 0.6 µM | Selectivity index HepG-2 ([4]; ratio IC50 hFF3 / IC50 HepG2): 4.5 | IC50 ([5]; Mus musculus, RAW264.7, MTT, 24 h, read-out: IC50 RAW264.7 (macrophage)): 19.3 ± 3.7 µM | Selectivity index RAW264 ([5]; ratio IC50 hFF3 / IC50 RAW264.7): 1.7
